# According to patent US9169260B2 (MERCK SHARP & DOHME CORP., priority 2011, dated 2015):
# Biological target: GST tagged IRAK-4 (Homo sapiens (Human), UniProt Q9NWZ3)
# Test: IRAK-4 Kinase Assay (IMAP fluorescence polarization)
# Assay type: biochemical
# Conditions: 100 μM ATP, 30 minutes at 25° C.
# Procedure, shortened: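 Activity was read by IMAP fluorescence polarization, where phosphopeptide binding to M(III) nanoparticles raises FP. The 30-minute, 25° C reaction used 100 μM ATP, 100 nM RP7030 substrate and 0.5 nM GST-IRAK-4 in pH 7.2 Tris buffer with MgCl2, DTT and Tween 20.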
# GST tagged IRAK-4, sequence (Q9NWZ3 whole entry): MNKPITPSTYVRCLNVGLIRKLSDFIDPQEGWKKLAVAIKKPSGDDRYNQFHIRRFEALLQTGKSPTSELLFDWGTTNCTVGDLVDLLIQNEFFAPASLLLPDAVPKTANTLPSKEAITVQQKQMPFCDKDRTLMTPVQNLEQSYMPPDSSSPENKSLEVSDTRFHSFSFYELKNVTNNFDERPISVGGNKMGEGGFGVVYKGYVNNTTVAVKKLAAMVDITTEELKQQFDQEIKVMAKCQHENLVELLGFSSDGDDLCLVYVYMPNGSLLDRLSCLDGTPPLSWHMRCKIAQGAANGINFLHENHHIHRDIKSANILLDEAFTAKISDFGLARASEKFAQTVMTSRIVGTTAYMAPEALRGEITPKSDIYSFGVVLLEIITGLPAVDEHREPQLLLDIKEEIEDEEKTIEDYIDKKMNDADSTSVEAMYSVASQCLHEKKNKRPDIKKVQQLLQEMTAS
row,Structure (SMILES),IC50 [µM]
1,"Cc1ccc(-n2nc(C3CCN(S(=O)(=O)c4sc(C)nc4C)CC3)cc2NC(=O)c2cnn3cccnc23)cc1 [Example 364, N-[3-{1-[(2,4-dimethyl-1,3-thiazol-5-yl)sulfonyl]piperidin-4-yl}-1-(4-methylphenyl)-1H-pyrazol-5-yl]pyrazolo[1,5-a]pyrimidine-3-carboxamide]",< 0.1
2,"Cc1ccc(-n2nc(C3CCN(S(=O)(=O)C(C)C)CC3)cc2NC(=O)c2cnn3cccnc23)cc1 [Example 368, N-[3-{1-[(1-methylethyl)sulfonyl]piperidin-4-yl}-1-(4-methylphenyl)-1H-pyrazol-5-yl]pyrazolo[1,5-a]pyrimidine-3-carboxamide]",< 0.1

# Same assay, conditions: 100 μM ATP, 30 minutes at 25° C.; μM
row,Structure (SMILES),IC50 [µM]
1,Cc1ccc(-n2nc(C3CCN(S(=O)(=O)c4ccc(F)c(F)c4)CC3)cc2NC(=O)c2cnn3cccnc23)cc1 [Example 365],< 1
2,"Cc1ccc(-n2nc(C3CCN(S(=O)(=O)c4ccc(F)cc4F)CC3)cc2NC(=O)c2cnn3cccnc23)cc1 [Example 370, N-[3-{1-[(2,4-difluorophenyl)sulfonyl]piperidin-4-yl}-1-(4-methylphenyl)-1H-pyrazol-5-yl]pyrazolo[1,5-a]pyrimidine-3-carboxamide]",< 1
3,"Cc1ccc(-n2nc(C3CCN(S(=O)(=O)c4cn(C)cn4)CC3)cc2NC(=O)c2cnn3cccnc23)cc1 [Example 376, N-[3-{1-[(1-methyl-1H-imidazol-4-yl)sulfonyl]piperidin-4-yl}-1-(4-methylphenyl)-1H-pyrazol-5-yl]pyrazolo[1,5-a]pyrimidine-3-carboxamide]",< 1
4,"Cc1ccc(-n2nc(C3CCN(S(=O)(=O)c4ccc5ccccc5c4)CC3)cc2NC(=O)c2cnn3cccnc23)cc1 [Example 377, N-{1-(4-methylphenyl)-3-[1-(naphthalen-2-ylsulfonyl)piperidin-4-yl]-1H-pyrazol-5-yl}pyrazolo[1,5-a]pyrimidine-3-carboxamide]",> 1
5,"Cc1ccc(-n2nc(C3CCN(S(=O)(=O)c4ccccc4F)CC3)cc2NC(=O)c2cnn3cccnc23)cc1 [Example 378, N-[3-{1-[(2-fluorophenyl)sulfonyl]piperidin-4-yl}-1-(4-methylphenyl)-1H-pyrazol-5-yl]pyrazolo[1,5-a]pyrimidine-3-carboxamide]",< 1
6,"Cc1ccc(-n2nc(C3CCN(S(=O)(=O)c4cccc(F)c4)CC3)cc2NC(=O)c2cnn3cccnc23)cc1 [Example 379, N-[3-{1-[(3-fluorophenyl)sulfonyl]piperidin-4-yl}-1-(4-methylphenyl)-1H-pyrazol-5-yl]pyrazolo[1,5-a]pyrimidine-3-carboxamide]",< 1
7,"Cc1ccc(-n2nc(C3CCN(S(=O)(=O)c4ccc(C#N)cc4)CC3)cc2NC(=O)c2cnn3cccnc23)cc1 [Example 380, N-[3-{1-[(4-cyanophenyl)sulfonyl]piperidin-4-yl}-1-(4-methylphenyl)-1H-pyrazol-5-yl]pyrazolo[1,5-a]pyrimidine-3-carboxamide]",< 1
8,"Cc1ccc(-n2nc(C3CCN(S(=O)(=O)c4ccc(C(F)(F)F)cc4)CC3)cc2NC(=O)c2cnn3cccnc23)cc1 [Example 381, N-[1-(4-methylphenyl)-3-(1-{[4-(trifluoromethyl)phenyl]sulfonyl}piperidin-4-yl)-1H-pyrazol-5-yl]pyrazolo[1,5-a]pyrimidine-3-carboxamide]",> 1
9,"COc1cccc(S(=O)(=O)N2CCC(c3cc(NC(=O)c4cnn5cccnc45)n(-c4ccc(C)cc4)n3)CC2)c1 [Example 385, N-[3-{1-[(3-methoxyphenyl)sulfonyl]piperidin-4-yl}-1-(4-methylphenyl)-1H-pyrazol-5-yl]pyrazolo[1,5-a]pyrimidine-3-carboxamide]",> 1
10,"Cc1ccc(-n2nc(C3CCN(S(=O)(=O)c4cn(C)c(C)n4)CC3)cc2NC(=O)c2cnn3cccnc23)cc1 [Example 386, N-[3-{1-[(1,2-dimethyl-1H-imidazol-4-yl)sulfonyl]piperidin-4-yl}-1-(4-methylphenyl)-1H-pyrazol-5-yl]pyrazolo[1,5-a]pyrimidine-3-carboxamide]",< 1
11,"Cc1ccc(-n2nc(C3CCN(S(=O)(=O)c4ccc(Cl)cc4Cl)CC3)cc2NC(=O)c2cnn3cccnc23)cc1 [Example 391, N-[3-{1[(2,4-dichlorophenyl)sulfonyl]piperidin-4-yl}-1-(4-methylphenyl)-1H-pyrazol-5-yl]pyrazolo[1,5-a]pyrimidine-3-carboxamide]",> 1

# Other lines, results leading:
row,IC50 [µM],Structure (SMILES)
1,< 1,"Cc1ccc(-n2nc(C3CCN(S(=O)(=O)c4ccc(F)cc4)CC3)cc2NC(=O)c2cnn3cccnc23)cc1 [Example 366, N-[3-{1[(4-fluorophenyl)sulfonyl]piperidin-4-yl}-1-(4-methylphenyl)-1H-pyrazol-5-yl]pyrazolo[1,5-a]pyrimidine-3-carboxamide]"
2,< 1,"COc1ccc(S(=O)(=O)N2CCC(c3cc(NC(=O)c4cnn5cccnc45)n(-c4ccc(C)cc4)n3)CC2)cc1 [Example 367, N-[3-{1-[(4-methoxyphenyl)sulfonyl]piperidin-4-yl}-1-(4-methylphenyl)-1H-pyrazol-5-yl]pyrazolo[1,5-a]pyrimidine-3-carboxamide]"
3,< 1,"CCCCS(=O)(=O)N1CCC(c2cc(NC(=O)c3cnn4cccnc34)n(-c3ccc(C)cc3)n2)CC1 [Example 369, N-{3-[1-(butylsulfonyl)piperidin-4-yl]-1-(4-methylphenyl)-1H-pyrazol-5-yl}pyrazolo[1,5-a]pyrimidine-3-carboxamide]"
4,> 1,"Cc1ccc(-n2nc(C3CCN(S(=O)(=O)c4cccc(C(F)(F)F)c4)CC3)cc2NC(=O)c2cnn3cccnc23)cc1 [Example 371, N-[1-(4-methylphenyl)-3-(1-{[3-(trifluoromethyl)phenyl]sulfonyl}piperidin-4-yl)-1H-pyrazol-5-yl]pyrazolo[1,5-a]pyrimidine-3-carboxamide]"
5,< 1,"COc1ccc(S(=O)(=O)N2CCC(c3cc(NC(=O)c4cnn5cccnc45)n(-c4ccc(C)cc4)n3)CC2)c(OC)c1 [Example 372, N-[3-{1-[(2,4-dimethoxyphenyl)sulfonyl]piperidin-4-yl}-1-(4-methylphenyl)-1H-pyrazol-5-yl]pyrazolo[1,5-a]pyrimidine-3-carboxamide]"
6,< 1,"Cc1ccc(-n2nc(C3CCN(S(=O)(=O)C4CCCCC4)CC3)cc2NC(=O)c2cnn3cccnc23)cc1 [Example 373, N-{3-[1-(cyclohexylsulfonyl)piperidin-4-yl]-1-(4-methylphenyl)-1H-pyrazol-5-yl}pyrazolo[1,5-a]pyrimidine-3-carboxamide]"
7,< 1,"Cc1ccc(-n2nc(C3CCN(S(=O)(=O)c4cccc(C#N)c4)CC3)cc2NC(=O)c2cnn3cccnc23)cc1 [Example 374, N-[3-{1-[(3-cyanophenyl)sulfonyl]piperidin-4-yl}-1-(4-methylphenyl)-1H-pyrazol-5-yl]pyrazolo[1,5-a]pyrimidine-3-carboxamide]"
8,< 1,"Cc1ccc(-n2nc(C3CCN(S(=O)(=O)c4cnn(C)c4)CC3)cc2NC(=O)c2cnn3cccnc23)cc1 [Example 375, N-[1-(4-methylphenyl)-3-{1-[(1-methyl-1H-pyrazol-4-yl)sulfonyl]piperidin-4-yl}-1H-pyrazol-5-yl]pyrazolo[1,5-a]pyrimidine-3-carboxamide]"
9,< 1,Cc1ccc(-n2nc(C3CCN(S(=O)(=O)c4ccc(Cl)nc4)CC3)cc2NC(=O)c2cnn3cccnc23)cc1 [Example 382]
10,< 1,"Cc1ccc(-n2nc(C3CCN(S(=O)(=O)c4ccc(N5CCOCC5)nc4)CC3)cc2NC(=O)c2cnn3cccnc23)cc1 [Example 383, N-[1-(4-methylphenyl)-3-{1-[(6-morpholin-4-ylpyridin-3-yl)sulfonyl]piperidin-4-yl}-1H-pyrazol-5-yl]pyrazolo[1,5-a]pyrimidine-3-carboxamide]"
11,< 1,"Cc1ccc(-n2nc(C3CCN(S(=O)(=O)c4ccc5ncsc5c4)CC3)cc2NC(=O)c2cnn3cccnc23)cc1 [Example 384, N-{3-[1-(1,3-benzothiazol-6-ylsulfonyl)piperidin-4-yl]-1-(4-methylphenyl)-1H-pyrazol-5-yl}pyrazolo[1,5-a]pyrimidine-3-carboxamide]"
12,< 1,"Cc1ccc(-n2nc(C3CCN(S(=O)(=O)Cc4ccccc4)CC3)cc2NC(=O)c2cnn3cccnc23)cc1 [Example 387, N-{3-[1-(benzylsulfonyl)piperidin-4-yl]-1-(4-methylphenyl)-1H-pyrazol-5-yl}pyrazolo[1,5-a]pyrimidine-3-carboxamide]"
13,< 1,"Cc1ccc(-n2nc(C3CCN(S(=O)(=O)c4cccnc4Cl)CC3)cc2NC(=O)c2cnn3cccnc23)cc1 [Example 388, N-[3-{1-[(2-chloropyridin-3-yl)sulfonyl]piperidin-4-yl}-1-(4-methylphenyl)-1H-pyrazol-5-yl]pyrazolo[1,5-a]pyrimidine-3-carboxamide]"
14,< 1,"COc1ccc(S(=O)(=O)N2CCC(c3cc(NC(=O)c4cnn5cccnc45)n(-c4ccc(C)cc4)n3)CC2)cn1 [Example 389, N-[3-{1-[(6-methoxypyridin-3-yl)sulfonyl]piperidin-4-yl}-1-(4-methylphenyl)-1H-pyrazol-5-yl]pyrazolo[1,5-a]pyrimidine-3-carboxamide]"
15,> 1,"Cc1ccc(-n2nc(C3CCN(S(=O)(=O)c4c(Cl)cccc4Cl)CC3)cc2NC(=O)c2cnn3cccnc23)cc1 [Example 390, N-[3-{1-[(2,6-dichlorophenyl)sulfonyl]piperidin-4-yl}-1-(4-methylphenyl)-1H-pyrazol-5-yl]pyrazolo[1,5-a]pyrimidine-3-carboxamide]"
16,> 1,"Cc1ccc(-n2nc(C3CCN(S(=O)(=O)c4ccc(Cl)s4)CC3)cc2NC(=O)c2cnn3cccnc23)cc1 [Example 393, N-[3-{1-[(5-chlorothiophen-2-yl)sulfonyl]piperidin-4-yl}-1-(4-methylphenyl)-1H-pyrazol-5-yl]pyrazolo[1,5-a]pyrimidine-3-carboxamide]"
